{"source": "patent US20090118470A1", "about": "(priority 2005, published 2009)", "key": {"prions [1]": {"test_system": "prions", "conditions": "cited from earlier work; for effect on prions: alcohols alone"}, "[2]": {"test_system": "263K strain of scrapie agent", "assay_type": "in vivo, Syrian gold hamsters", "conditions": "for inactivation factor: at 80° C.; for Mean incubation period ± SE: diseased animals only; for No. infected/No. injected: intracerebral inoculation"}, "prions [3]": {"test_system": "prions", "conditions": "cited from earlier work"}}, "note": "Where two headings read alike, the source gives them in different places.", "data": [{"compound": "CCO", "note": "[ethanol]", "values": [{"measurement": "effect on prions", "setting": "prions [1]", "result": "do not have an effect on prions"}]}, {"compound": "CCCCCCCCCCCCOS(=O)(=O)[O-].[Na+]", "note": "[SDS, Sodium dodecylsulfate]", "values": [{"measurement": "residual infectivity after treatment", "setting": "prions [1]; heated in SDS solution (3% or greater; 0.10 M) for at least ten minutes, without autoclaving", "result": "Some residual infectivity remains"}]}, {"compound": "O", "note": "[100% water, water]", "values": [{"measurement": "inactivation factor", "setting": "[2]", "result": "about 10"}, {"measurement": "Infectivity titre ± SE", "setting": "[2]; heat treatment 80° C./20 min.", "result": "7.2 ± 0.7", "unit": "log ID50 per sample"}, {"measurement": "Mean incubation period ± SE", "setting": "[2]; heat treatment 80° C./20 min.", "result": "78 ± 4", "unit": "days"}, {"measurement": "No. infected/No. injected", "setting": "[2]; heat treatment 80° C./20 min.", "result": "5/5"}, {"measurement": "Infectivity titre ± SE", "setting": "[2]; heat treatment 90° C./20 min.", "result": "6.2 ± 0.2", "unit": "log ID50 per sample"}, {"measurement": "Mean incubation period ± SE", "setting": "[2]; heat treatment 90° C./20 min.", "result": "85 ± 1", "unit": "days"}, {"measurement": "No. infected/No. injected", "setting": "[2]; heat treatment 90° C./20 min.", "result": "5/5"}, {"measurement": "Infectivity titre ± SE", "setting": "[2]; heat treatment 100° C./20 min.", "result": "5.0 ± 0.1", "unit": "log ID50 per sample"}, {"measurement": "Mean incubation period ± SE", "setting": "[2]; heat treatment 100° C./20 min.", "result": "97 ± 1", "unit": "days"}, {"measurement": "No. infected/No. injected", "setting": "[2]; heat treatment 100° C./20 min.", "result": "5/5"}]}, {"compound": "guanidinium isothiocyanate", "values": [{"measurement": "prion inactivation", "setting": "prions [1]; concentration of 3 M, immersion times longer than 1 hour", "result": "inactivates prions"}, {"measurement": "illness of experimental animals after intracerebral inoculation", "setting": "prions [1]; concentration of 4 M, at least 15 minutes residence time", "result": "no experimental animal in various experiments is reported to become ill"}, {"measurement": "denaturing effect", "setting": "prions [3]; 1.5 N solution (177 g/l)", "result": "partially denaturing effect"}]}, {"compound": "CC(C)O", "note": "[2-propanol]", "values": [{"measurement": "effect on prions", "setting": "prions [1]", "result": "do not have an effect on prions"}]}, {"compound": "Cl.N=C(N)N", "note": "[guanidinium hydrochloride]", "values": [{"measurement": "conversion of prions into an irregular coiled structure", "setting": "prions [3]; 6 N guanidinium hydrochloride (573 g/l)", "result": "complete conversion"}]}, {"compound": "OCC(O)CO", "note": "[glycerol]", "values": [{"measurement": "inactivation factor", "setting": "[2]", "result": "< 10"}]}, {"compound": "NC(N)=O", "note": "[urea]", "values": [{"measurement": "conversion of prions into an irregular coiled structure", "setting": "prions [3]; 8 N urea (480 g/l)", "result": "complete conversion"}]}, {"compound": "CCCO", "note": "[1-propanol]", "values": [{"measurement": "effect on prions", "setting": "prions [1]", "result": "do not have an effect on prions"}]}]}
